According to publication PMC7044277 (Nature Communications, 2020):
Values joined by “and” are separate entries in the source; they are usually repeats but may differ in a detail not shown here. Equal entries are not always repeated.

Experiments:
Assay type in all cases: cell-based
320 non-olfactory GPCRs [1] = molecular target: 320 non-olfactory GPCRs (Homo sapiens, UniProt P21728)
320 non-olfactory GPCRs [2] = molecular target: 320 non-olfactory GPCRs (Homo sapiens, UniProt P21554)
320 non-olfactory GPCRs [3] = molecular target: T1, 320 non-olfactory GPCRs (Homo sapiens, UniProt Q16602)
T1 construct: expressed in transfected cells; host or cells: HTLA cells
T1 sequence (Q16602 23-461): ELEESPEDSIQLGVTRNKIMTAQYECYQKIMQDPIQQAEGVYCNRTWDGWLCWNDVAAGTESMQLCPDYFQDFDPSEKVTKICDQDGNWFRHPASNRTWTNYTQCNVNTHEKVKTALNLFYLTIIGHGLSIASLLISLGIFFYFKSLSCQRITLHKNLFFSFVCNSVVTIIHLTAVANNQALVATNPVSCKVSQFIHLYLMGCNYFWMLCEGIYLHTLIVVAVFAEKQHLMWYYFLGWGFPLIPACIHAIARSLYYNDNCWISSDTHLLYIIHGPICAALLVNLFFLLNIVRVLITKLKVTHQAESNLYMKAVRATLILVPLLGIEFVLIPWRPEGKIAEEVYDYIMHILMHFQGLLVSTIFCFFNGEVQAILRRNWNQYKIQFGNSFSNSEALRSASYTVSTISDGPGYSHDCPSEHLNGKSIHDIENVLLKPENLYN

320 non-olfactory GPCRs [4] = molecular target: T2, 320 non-olfactory GPCRs (Homo sapiens, UniProt P49286); conditions: receptor MTNR1B; replicate values, Fig_4g
T2 construct: expressed in transfected cells; host or cells: HTLA cells
T2 sequence (P49286 whole entry): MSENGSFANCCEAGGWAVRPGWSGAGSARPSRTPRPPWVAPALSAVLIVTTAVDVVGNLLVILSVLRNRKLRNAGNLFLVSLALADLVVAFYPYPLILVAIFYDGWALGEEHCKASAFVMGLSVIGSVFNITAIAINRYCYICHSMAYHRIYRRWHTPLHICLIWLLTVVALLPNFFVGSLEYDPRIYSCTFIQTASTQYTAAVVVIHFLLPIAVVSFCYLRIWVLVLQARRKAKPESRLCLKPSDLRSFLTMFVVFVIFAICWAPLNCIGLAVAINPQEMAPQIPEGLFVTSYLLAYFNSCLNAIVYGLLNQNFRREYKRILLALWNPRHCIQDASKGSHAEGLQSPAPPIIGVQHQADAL
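Throughout, for Fold of Basal: compound tested at 1 µM final concentration.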
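Throughout, for GPCRome agonism screen response: fold over basal response of each receptor without drug.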

Sequence of 320 non-olfactory GPCRs (Homo sapiens, UniProt P21728) (P21728 whole entry): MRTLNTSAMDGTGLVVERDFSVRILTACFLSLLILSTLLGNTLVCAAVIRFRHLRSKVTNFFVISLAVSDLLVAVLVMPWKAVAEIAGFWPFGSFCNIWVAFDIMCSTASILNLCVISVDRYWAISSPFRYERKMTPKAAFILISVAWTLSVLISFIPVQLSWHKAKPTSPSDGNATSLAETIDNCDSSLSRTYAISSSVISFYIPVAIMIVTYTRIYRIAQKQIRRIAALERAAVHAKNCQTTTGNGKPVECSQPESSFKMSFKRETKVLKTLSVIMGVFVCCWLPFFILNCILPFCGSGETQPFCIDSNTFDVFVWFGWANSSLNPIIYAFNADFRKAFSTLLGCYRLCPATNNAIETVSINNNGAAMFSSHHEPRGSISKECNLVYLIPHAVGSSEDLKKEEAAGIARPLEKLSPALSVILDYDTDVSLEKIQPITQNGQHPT
Sequence of 320 non-olfactory GPCRs (Homo sapiens, UniProt P21554) (P21554 whole entry): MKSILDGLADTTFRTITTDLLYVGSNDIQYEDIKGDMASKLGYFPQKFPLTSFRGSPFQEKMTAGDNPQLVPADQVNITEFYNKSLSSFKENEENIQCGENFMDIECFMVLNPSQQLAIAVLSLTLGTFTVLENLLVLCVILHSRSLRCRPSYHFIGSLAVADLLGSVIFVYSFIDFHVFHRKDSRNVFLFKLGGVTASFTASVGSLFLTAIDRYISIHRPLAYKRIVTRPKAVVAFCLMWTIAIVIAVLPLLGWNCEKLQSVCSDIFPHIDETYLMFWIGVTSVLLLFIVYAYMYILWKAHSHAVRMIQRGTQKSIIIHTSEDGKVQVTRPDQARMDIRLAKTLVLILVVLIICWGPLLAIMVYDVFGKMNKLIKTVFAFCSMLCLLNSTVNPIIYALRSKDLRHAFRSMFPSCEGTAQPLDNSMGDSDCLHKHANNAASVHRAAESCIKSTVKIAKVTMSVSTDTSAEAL

## CCOc1cccc2cc(C(C)NCC3(O)CCCCC3)oc12 (stereo not shown) [O4LE6]
320 non-olfactory GPCRs [1]
  Fold of Basal: 0.7632 and 1.021 and 0.953 and 0.8141
320 non-olfactory GPCRs [2]
  Fold of Basal: 1.089 and 1.197 and 0.9218 and 0.8315
320 non-olfactory GPCRs [3]
  Fold of Basal: 0.7801 and 0.8303 and 0.6573 and 0.7619
320 non-olfactory GPCRs [4]
  GPCRome agonism screen response: 1.769 and 0.5073 and 1.312 and 1.409
